Experimental data: US8192962B2, “Processes for detecting toxic substances” (Daikin Industries, Ltd., priority 2001, dated 2012)

Test system: Detoxification protein genes
Experiment: DNA chip mRNA expression in yeast, detoxification protein genes (Table 8)
Assay type: cell-based, Saccharomyces cerevisiae S288C
Description: Yeast (Saccharomyces cerevisiae S288C (α SUC2mal mel gap2 CUP1)) were incubated at 25° C. on YPD medium (yeast extract 1%, polypepton 2%, glucose 2%). One of toxic chemical substances was added to the cells at logarithmic growth phase, and the cells were further incubated for two hours. Cells were cultured without any chemical substance in the same condition, and were used as control. Concentrations of the chemical substances were defined to inhibit the growth of the yeast but not lead to death.
After completion of the incubation, the culture was centrifuged to collect the cells. To the cells, sodium acetate buffer (50 mM sodium acetate, 10 mM EDTA, 1% SDS) was added, and the mixture was shaken at 65° C. for five minutes, followed by returning to room temperature, and obtaining the supernatant, of which the procedures were repeated two times. To the supernatant, ½ amount of a solution of phenol/chloroform was added, and the mixture was centrifuged to give a supernatant, which was added with an equal amount of chloroform, and the mixture was centrifuged to give a supernatant. To the supernatant, an equal amount of isopropanol containing 0.3 M sodium acetate was added, and the mixture was allowed to stand at room temperature for 30 minutes, after which the mixture was centrifuged to give a sediment of the whole RNAs. Seventy % ethanol was added to the sediment, and the mixture was again centrifuged to give a sediment, which was then dried and dissolved in water. mRNA was isolated from the whole RNAs as followings. In view of the fact that a poly A chain is attached to the 3′ terminus of mRNA, a polynucleotide having a poly T structure which was immobilized on the surface of latex beads was used to trap the mRNA, and then the mRNA was washed and eluted with spine column (Oligotex-dT30<Super>mRNA Purification Kit, Takara). Reverse transcription of the mRNA was conducted with a reverse transcriptase (Super Script II Reverse Transcriptase; catalogue No. 18064-014, GibcoBRL) using fluorescence-labeled nucleotides to give cDNAs that were introduced with Cy3-dUTP or Cy5-dUTP during the reverse transcription.
The labeled cDNAs were dissolved in TE buffer (10mM Tris-HCl/1 mM EDTA, pH8.0), and the solution was dropped on the DNA chip containing the whole genes of yeast (DNA Chip Research Inc. Japan) so that the cDNAs were hybridized on the DNA chip at 65° C. for over 12 hours. The fluoresces intensity of the DNA chip was read with a scanner, and the ratio relative to the fluorescence intensity resulting from the absence of chemical substance was estimated as the following, which is shown in Tables 1 to 9: […]

[Cl][Cd][Cl] [(2), CdCl2]
The level of expressed mRNA in the presence of chemical substance/The level of expressed mRNA in the absence of chemical substance (yeast gene YBR244W): 1.4
The level of expressed mRNA in the presence of chemical substance/The level of expressed mRNA in the absence of chemical substance (yeast gene YBR293W): 3.1
The level of expressed mRNA in the presence of chemical substance/The level of expressed mRNA in the absence of chemical substance (yeast gene YCL035C): 2.3
The level of expressed mRNA in the presence of chemical substance/The level of expressed mRNA in the absence of chemical substance (yeast gene YCL069W): 15.7
The level of expressed mRNA in the presence of chemical substance/The level of expressed mRNA in the absence of chemical substance (yeast gene YCR083W): 2.8
The level of expressed mRNA in the presence of chemical substance/The level of expressed mRNA in the absence of chemical substance (yeast gene YDL100C): 1.2
The level of expressed mRNA in the presence of chemical substance/The level of expressed mRNA in the absence of chemical substance (yeast gene YDL168W): 2.0
The level of expressed mRNA in the presence of chemical substance/The level of expressed mRNA in the absence of chemical substance (yeast gene YDR256C): 1.4
The level of expressed mRNA in the presence of chemical substance/The level of expressed mRNA in the absence of chemical substance (yeast gene YDR453C): 2.7
The level of expressed mRNA in the presence of chemical substance/The level of expressed mRNA in the absence of chemical substance (yeast gene YDR513W): 2.5
The level of expressed mRNA in the presence of chemical substance/The level of expressed mRNA in the absence of chemical substance (yeast gene YDR538W): 1.1
The level of expressed mRNA in the presence of chemical substance/The level of expressed mRNA in the absence of chemical substance (yeast gene YEL027W): 0.6
The level of expressed mRNA in the presence of chemical substance/The level of expressed mRNA in the absence of chemical substance (yeast gene YEL065W): 3.8
The level of expressed mRNA in the presence of chemical substance/The level of expressed mRNA in the absence of chemical substance (yeast gene YER185W): 3.1
The level of expressed mRNA in the presence of chemical substance/The level of expressed mRNA in the absence of chemical substance (yeast gene YFL050C): 1.0
The level of expressed mRNA in the presence of chemical substance/The level of expressed mRNA in the absence of chemical substance (yeast gene YGL013C): 1.2
The level of expressed mRNA in the presence of chemical substance/The level of expressed mRNA in the absence of chemical substance (yeast gene YGL254W): 1.1
The level of expressed mRNA in the presence of chemical substance/The level of expressed mRNA in the absence of chemical substance (yeast gene YGR088W): 1.2
The level of expressed mRNA in the presence of chemical substance/The level of expressed mRNA in the absence of chemical substance (yeast gene YGR138C): 1.6
The level of expressed mRNA in the presence of chemical substance/The level of expressed mRNA in the absence of chemical substance (yeast gene YGR197C): 2.4
The level of expressed mRNA in the presence of chemical substance/The level of expressed mRNA in the absence of chemical substance (yeast gene YGR209C): 3.1
The level of expressed mRNA in the presence of chemical substance/The level of expressed mRNA in the absence of chemical substance (yeast gene YGR224W): 1.2
The level of expressed mRNA in the presence of chemical substance/The level of expressed mRNA in the absence of chemical substance (yeast gene YHL040C): 4.4
The level of expressed mRNA in the presence of chemical substance/The level of expressed mRNA in the absence of chemical substance (yeast gene YHL047C): 4.4
The level of expressed mRNA in the presence of chemical substance/The level of expressed mRNA in the absence of chemical substance (yeast gene YHR008C): 6.9
The level of expressed mRNA in the presence of chemical substance/The level of expressed mRNA in the absence of chemical substance (yeast gene YHR048W): 1.4
The level of expressed mRNA in the presence of chemical substance/The level of expressed mRNA in the absence of chemical substance (yeast gene YHR053C): 2.1
The level of expressed mRNA in the presence of chemical substance/The level of expressed mRNA in the absence of chemical substance (yeast gene YHR055C): 1.8
The level of expressed mRNA in the presence of chemical substance/The level of expressed mRNA in the absence of chemical substance (yeast gene YIR002C): 1.1
The level of expressed mRNA in the presence of chemical substance/The level of expressed mRNA in the absence of chemical substance (yeast gene YIR038C): 3.5
The level of expressed mRNA in the presence of chemical substance/The level of expressed mRNA in the absence of chemical substance (yeast gene YJL101C): 1.9
The level of expressed mRNA in the presence of chemical substance/The level of expressed mRNA in the absence of chemical substance (yeast gene YJR104C): 1.8
The level of expressed mRNA in the presence of chemical substance/The level of expressed mRNA in the absence of chemical substance (yeast gene YKL026C): 2.0
The level of expressed mRNA in the presence of chemical substance/The level of expressed mRNA in the absence of chemical substance (yeast gene YKL064W): 0.9
The level of expressed mRNA in the presence of chemical substance/The level of expressed mRNA in the absence of chemical substance (yeast gene YKR066C): 1.4
The level of expressed mRNA in the presence of chemical substance/The level of expressed mRNA in the absence of chemical substance (yeast gene YKR105C): 0.9
The level of expressed mRNA in the presence of chemical substance/The level of expressed mRNA in the absence of chemical substance (yeast gene YKR106W): 0.8
The level of expressed mRNA in the presence of chemical substance/The level of expressed mRNA in the absence of chemical substance (yeast gene YLL028W): 0.9
The level of expressed mRNA in the presence of chemical substance/The level of expressed mRNA in the absence of chemical substance (yeast gene YLL057C): 59.9
The level of expressed mRNA in the presence of chemical substance/The level of expressed mRNA in the absence of chemical substance (yeast gene YLL060C): 4.2
The level of expressed mRNA in the presence of chemical substance/The level of expressed mRNA in the absence of chemical substance (yeast gene YLR043C): 1.4
The level of expressed mRNA in the presence of chemical substance/The level of expressed mRNA in the absence of chemical substance (yeast gene YLR046C): 1.7
The level of expressed mRNA in the presence of chemical substance/The level of expressed mRNA in the absence of chemical substance (yeast gene YML028W): 2.2
The level of expressed mRNA in the presence of chemical substance/The level of expressed mRNA in the absence of chemical substance (yeast gene YML116W): 1.3
The level of expressed mRNA in the presence of chemical substance/The level of expressed mRNA in the absence of chemical substance (yeast gene YMR015C): 0.7
The level of expressed mRNA in the presence of chemical substance/The level of expressed mRNA in the absence of chemical substance (yeast gene YMR038C): 1.7
The level of expressed mRNA in the presence of chemical substance/The level of expressed mRNA in the absence of chemical substance (yeast gene YNL239W): 2.4
The level of expressed mRNA in the presence of chemical substance/The level of expressed mRNA in the absence of chemical substance (yeast gene YNL241C): 2.5
The level of expressed mRNA in the presence of chemical substance/The level of expressed mRNA in the absence of chemical substance (yeast gene YNL259C): 4.5
The level of expressed mRNA in the presence of chemical substance/The level of expressed mRNA in the absence of chemical substance (yeast gene YOL158C): 4.0
The level of expressed mRNA in the presence of chemical substance/The level of expressed mRNA in the absence of chemical substance (yeast gene YOR031W): 1.7
The level of expressed mRNA in the presence of chemical substance/The level of expressed mRNA in the absence of chemical substance (yeast gene YOR153W): 0.9
The level of expressed mRNA in the presence of chemical substance/The level of expressed mRNA in the absence of chemical substance (yeast gene YOR247W): 0.6
The level of expressed mRNA in the presence of chemical substance/The level of expressed mRNA in the absence of chemical substance (yeast gene YOR251C): 1.0
The level of expressed mRNA in the presence of chemical substance/The level of expressed mRNA in the absence of chemical substance (yeast gene YOR273C): 1.0
The level of expressed mRNA in the presence of chemical substance/The level of expressed mRNA in the absence of chemical substance (yeast gene YPL163C): 0.7
The level of expressed mRNA in the presence of chemical substance/The level of expressed mRNA in the absence of chemical substance (yeast gene YPR200C): 1.7
